Source: patent US4933456A, “Dipyridoxyl phosphate NMRI contrast agents” (Salutar, Inc., priority 1987, dated 1990)
Like-named read-outs stand apart in the source and are kept apart here.

Tested on: selected body organs
Details: for T1: 0.01 mmol/kg i.v.
Method: Each of seven rabbits was injected intravenously with 0.01 mmol/kg of the solution obtained in Example 7. The rabbits were sacrificed at 0.25, 0.50, 1.0, 2.0, 4, 6 and 24 hours post-injection, and the proton relation values of selected body organs were measured with NMR, in vitro, at 10 MHz.

Molecule `Cc1ncc(COP(=O)(O)O)c(CN(CCN(CC(=O)[O-])Cc2c(COP(=O)(O)O)cnc(C)c2O)CC(=O)[O-])c1O.[Mn+2]` [Mn(DPDP), sodium-calcium salt of a manganese chelate complex of N,N,-bis-(pyridoxal-5-phosphate)ethylenediamine-N,N'-diacetic acid or N,N'-bis(3-hydroxy-2-methyl-5-phosphonomethyl-4-pyridylmethyl)ethylenediamine-N,N'-diacetic acid] has a T1 (Bile, 0.25 hr) of 160 ms, a T1 (Bile, 0.50 hr) of 46 ms and a T1 (Bile, 1.0 hr) of 25 ms. For the same molecule, the T1 (Bile, 2 hr) was 21 ms, the T1 (Bile, 4 hr) was < 1 ms and the T1 (Bile, 6 hr) was 14 ms. For the same molecule, the T1 (Bile, 24 hr) was 107 ms, the T1 (Heart, 0.25 hr) was 231 ms and the T1 (Heart, 0.50 hr) was 352 ms. The T1 (Heart, 1.0 hr) was 381 ms, the T1 (Heart, 2 hr) was 507 ms and the T1 (Heart, 4 hr) was 522 ms. The T1 (Heart, 6 hr) was 663 ms, the T1 (Heart, 24 hr) was 660 ms and the T1 (Liver, 0.25 hr) was 68 ms. The T1 (Liver, 0.50 hr) was 76 ms, the T1 (Liver, 1.0 hr) was 48 ms and the T1 (Liver, 2 hr) was 48 ms. The T1 (Liver, 4 hr) was 145 ms, the T1 (Liver, 6 hr) was 209 ms and the T1 (Liver, 24 hr) was 315 ms. The T1 (Renal cortex, 0.25 hr) was 202 ms, the T1 (Renal cortex, 0.50 hr) was 191 ms and the T1 (Renal cortex, 1.0 hr) was 229 ms. The T1 (Renal cortex, 2 hr) was 192 ms, the T1 (Renal cortex, 4 hr) was 210 ms and the T1 (Renal cortex, 6 hr) was 239 ms. It also gave a T1 (Renal cortex, 24 hr) of 328 ms, a T1 (Renal medulla, 0.25 hr) of 192 ms and a T1 (Renal medulla, 0.50 hr) of 231 ms. It also gave a T1 (Renal medulla, 1.0 hr) of 236 ms, a T1 (Renal medulla, 2 hr) of 310 ms and a T1 (Renal medulla, 4 hr) of 340 ms. The T1 (Renal medulla, 6 hr) was 375 ms, the T1 (Renal medulla, 24 hr) was 563 ms and the “clearance through both the renal and hepatobiliary systems, time post-injection” value (rabbit, i.v.) was 6 to 8 h. For the same molecule, the “uptake and clearance in the liver, renal cortex, renal medulla and heart” value (rabbit, i.v.) was “rapid uptake and clearance”.
